According to US20250289799A1, “PYRIMIDINE COMPOUND, METHOD FOR PREPARING SAME, AND PHARMACEUTICAL USE THEREOF” (JIANGSU YAHONG MEDITECH CO., LTD., priority 2022, published 2025):

Molecular target: Recombinant human His6-USP1/His6-UAF1 complex protein (Homo sapiens (Human), UniProt O94782)
Assay: In vitro , fluorescence detection with Ub-Rho substrate
Type: biochemical
Details: not given
Method: Experimental object: The USP1 […] inhibitory activity of the compounds was screened by fluorescence detection method using 384-well plates.
Experimental materials: Recombinant human His6-USP1/His6-UAF1 complex protein (R&D, Catalog No.: E-568-050), ubiquitin rhodamine 110 protein (Ub-Rho) (R&D, Catalog No.: U-555-050), 384-well plate (Perkin Elmer, Catalog No.: 6007279); all compounds were dissolved in 100% DMSO to obtain a 50 mM stock solution.
• 1) Preparation of 1× assay buffer: 1× assay buffer (modified Tris buffer) was prepared; • 2) Compound dilution: The compound was transferred to the assay plate by Echo. The final concentration of DMSO is 1%; • 3) Preparation of enzyme solution: Recombinant human His6-USP1/His6-UAF1 complex protein was added to 1× assay buffer to obtain an enzyme solution; • 4) Preparation of substrate solution: Ubiquitin rhodamine 110 protein CF (Ub-Rho) was added to 1× assay buffer to obtain a substrate solution; • 5) 10 μL enzyme solution was transferred to the assay plate, and 10 μL 1× assay buffer was added to the control well; • 6) The plate was incubated at room temperature for 1 hour; • 7) 10 μL substrate solution was added to each well to start the reaction, and the plate was centrifuged for 30 seconds, and shaked for 30 seconds; • 8) The plate was read with Envision after 30 minutes, and the parameters were excitation light 480 nm and emission light 540 nm; • 9) The data was collected and summarized; • 10) Curve fitting: The data was fitted in Excel, Inhibition rate formula: Percent inhibition rate=(maximum value−signal value)/(maximum value−minimum value)×100; the data was fitted in XL-Fit, • Half inhibition concentration formula: Percent inhibition rate=minimum concentration+(maximum concentration−minimum concentration)/(1+(half inhibition concentration/compound concentration)^slope); • Half inhibition concentration is referred to as IC50 hereinafter.

Recombinant human His6-USP1/His6-UAF1 complex protein, sequence (O94782 whole entry): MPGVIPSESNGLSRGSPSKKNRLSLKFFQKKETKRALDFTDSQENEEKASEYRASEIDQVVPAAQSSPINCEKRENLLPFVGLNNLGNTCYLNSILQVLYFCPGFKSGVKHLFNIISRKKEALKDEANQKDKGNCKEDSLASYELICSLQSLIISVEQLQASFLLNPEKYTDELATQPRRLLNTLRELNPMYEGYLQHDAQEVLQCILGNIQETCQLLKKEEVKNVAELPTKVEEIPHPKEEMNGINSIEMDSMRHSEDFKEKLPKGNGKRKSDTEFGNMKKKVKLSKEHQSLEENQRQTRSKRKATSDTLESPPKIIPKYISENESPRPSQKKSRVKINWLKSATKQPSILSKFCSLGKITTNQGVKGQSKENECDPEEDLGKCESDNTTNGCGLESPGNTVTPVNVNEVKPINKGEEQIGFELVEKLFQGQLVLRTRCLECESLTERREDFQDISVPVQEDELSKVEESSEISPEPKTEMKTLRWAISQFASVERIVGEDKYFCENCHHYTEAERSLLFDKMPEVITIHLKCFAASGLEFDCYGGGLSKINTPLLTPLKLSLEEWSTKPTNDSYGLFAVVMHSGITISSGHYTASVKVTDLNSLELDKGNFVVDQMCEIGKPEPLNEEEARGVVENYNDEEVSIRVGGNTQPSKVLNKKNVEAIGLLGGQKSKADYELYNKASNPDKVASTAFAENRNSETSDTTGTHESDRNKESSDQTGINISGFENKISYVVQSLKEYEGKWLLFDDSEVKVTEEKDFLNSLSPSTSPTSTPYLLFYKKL
Recombinant human His6-USP1/His6-UAF1 complex protein, sequence (Q8TAF3 whole entry partner): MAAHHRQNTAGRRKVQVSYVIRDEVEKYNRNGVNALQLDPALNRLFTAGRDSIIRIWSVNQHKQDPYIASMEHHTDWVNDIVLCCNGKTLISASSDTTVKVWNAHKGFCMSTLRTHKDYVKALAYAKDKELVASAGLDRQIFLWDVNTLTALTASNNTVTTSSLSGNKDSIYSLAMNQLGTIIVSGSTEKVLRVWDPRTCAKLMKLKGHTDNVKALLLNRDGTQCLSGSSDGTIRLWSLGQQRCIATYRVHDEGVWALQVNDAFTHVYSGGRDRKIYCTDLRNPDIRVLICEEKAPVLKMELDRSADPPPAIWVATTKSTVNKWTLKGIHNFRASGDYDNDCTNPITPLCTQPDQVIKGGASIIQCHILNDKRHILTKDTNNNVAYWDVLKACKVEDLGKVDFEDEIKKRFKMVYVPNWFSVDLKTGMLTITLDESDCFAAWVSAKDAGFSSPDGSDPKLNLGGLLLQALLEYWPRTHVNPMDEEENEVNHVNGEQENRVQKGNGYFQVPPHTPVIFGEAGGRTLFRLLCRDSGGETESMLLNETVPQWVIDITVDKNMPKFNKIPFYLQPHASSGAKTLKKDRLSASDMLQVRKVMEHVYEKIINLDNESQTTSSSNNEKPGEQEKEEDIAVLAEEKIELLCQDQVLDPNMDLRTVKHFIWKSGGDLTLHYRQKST

IC50 [µM] | SMILES
0.0019 | CC(C)c1ccccc1-c1ncc2c(n1)N(C[C@H]1CC[C@H](c3nc(C(F)(F)F)cn3C)CC1)CCO2 [Compound 13, 2-(2-Isopropylphenyl)-8-(((1R,4R)-4-(1-methyl-4-(trifluoromethyl)-1H-imidazol-2-yl)cyclohexyl)methyl)-7,8-dihydro-6H-pyrimido[5,4-b][1,4]oxazine]
0.06 | CC(C)c1ccccc1-c1ncc2c(n1)N(C[C@H]1CC[C@@H](c3nc(C(F)(F)F)cn3C)CC1)CCO2 [Compound 14, 2-(2-Isopropylphenyl)-8-(((1s,4s)-4-(1-methyl-4-(trifluoromethyl)-1H-imidazol-2-yl)cyclohexyl)methyl)-7,8-dihydro-6H-pyrimido[5,4-b][1,4]oxazine]
0.0069 | COc1ncnc(C2CC2)c1-c1nc(NCc2ccc(-c3ccccn3)cc2)c2occc2n1 [Example 34, 2-(4-Cyclopropyl-6-methoxypyrimidin-5-y1)-N-(4-(pyridin-2-yl)benzyl)furo[3,2-d]pyrimidin-4-amine]
1.05 | COc1cnc(-c2c(C)ncn2C(C)C)nc1NCC12CCC(c3ccc(C(F)(F)F)cn3)(CC1)CC2 [Example 148, 2-(1-Isopropyl-4-methyl-1H-imidazol-5-yl)-5-methoxy-N-((4-(5-(trifluoromethyl)pyridin-2-yl)bicyclo[2.2.2]octan-1-yl)methyl)pyrimidin-4-amine]

SMILES | IC50 [µM]
COc1cnc(-c2c(OC)ncnc2C2CC2)nc1NCC12C3C4C1C1C2C3C41c1nc(C(F)(F)F)cn1C (centres unmarked) [Example 215] | 0.0022

Test system: MDA-MB-436
Assay: CTG experiment on cell activity (CellTiter-Glo, 7 days)
Type: cell-based
Details: Homo sapiens, 168 h, MDA-MB-436 cells, cultured for 7 days
Method: • 1. Object: USP1 inhibitors were screened on 96-well plate by CTG assay. • 2. Materials: • The cells used were MDA-MB-436 (manufacturer: Nanjing Cobioer Biotechnology Co., Ltd.), and the culture medium was DMEM. • CTG (CellTiter-Glo® Luminescent Cell Viability Assay kit) (Promega, Catalog No.: G7572) • 96-well plate (Corning, Catalog No.: 3610) • 3. Compounds: • All compounds were dissolved in 100% DMSO to obtain 50 mM stock solutions. • 4. Experimental methods:
The cells to be tested were spread into a 96-well plate at a certain density at 200 μL per well, and 200 μL of cell culture medium was added to the blank well. The spread cell plate was placed in a 37° C. incubator.
The compound was diluted to different concentrations with 100% DMSO, and the final concentration of DMSO was 4%.
The compound formulated in (2) was added to the cell plate of (1) (10 μL per well). The cell plate with the compound added was placed in a 37° C. incubator, and cultured for 7 days before assay.
The substrate and buffer of the CTG kit were mixed evenly. The cell plate with the compound added in (3) was taken out from the incubator, and placed at room temperature for 30 minutes. The compound-containing culture medium in the cell plate was removed, 100 μL of PBS and 50 μL of CTG reagent were added to each well. The mixture in each well was mixed and shaked for 3 minutes, and then incubated at room temperature for 10 minutes. The plate was read by BIotek microplate reader, and the parameter was 567 CPM. • 5. Curve fitting • Same as enzyme assay.

IC50 [µM] | SMILES
1.8 | CC(C)c1ccccc1-c1nc(NCc2ccc3c(c2)CCN(C)C3=O)c2occc2n1 [Example 77, 6-(((2-(2-Isopropylphenyl)furo[3,2-d]pyrimidin-4-yl)amino)methyl)-2-methyl-3,4-dihydroisoquinolin-1(2H)-one]
> 5 | CC(C)c1ccccc1-c1nc(NCc2ccc3c(c2)CCN(C(C)C)C3=O)c2occc2n1 [Example 78, 2-Isopropyl-6-(((2-(2-isopropylphenyl)furo[3,2-d]pyrimidin-4-yl)amino)methyl)-3,4-dihydroisoquinolin-1(2H)-one]
1.17 | COc1cnc(-c2ccccc2C(C)C)nc1NCc1ccc(OCc2ccccn2)cc1 [Example 67, 2-(2-Isopropylphenyl)-5-methoxy-N-(4-(pyridin-2-ylmethoxy)benzyl)pyrimidin-4-amine]
0.002 | COc1cnc(-c2ccccc2C(C)C)nc1NCC1CCC(c2nc(C(F)(F)F)cn2C)CC1 [Compound 6, 2-(2-Isopropylphenyl)-5-methoxy-N-(((1R,4R)-4-(1-methyl-4-(trifluoromethyl)-1H-imidazol-2-yl)cyclohexyl)methyl)pyrimidin-4-amine]
1.21 | CCOCCOc1ccc(CNc2nc(-c3ccccc3C(C)C)nc3ccoc23)cc1 [Example 79, N-(4-(2-Ethoxyethoxy)benzyl)-2-(2-isopropylphenyl)furo[3,2-d]pyrimidin-4-amine]
> 5 | COc1ncnc(C2CC2)c1-c1ncc(OC(C)C)c(NCC23CCC(c4ccc(C(F)(F)F)cn4)(CC2)CC3)n1 [Example 112, 4′-Cyclopropyl-5-isopropoxy-6′-methoxy-N-((4-(5-(trifluoromethyl)pyridin-2-yl)bicyclo[2.2.2]octan-1-yl)methyl)-[2,5′-bipyrimidin]-4-amine]
1.44 | COc1cnc(-c2cccc3ccn(C)c23)nc1NCc1ccc(-c2nc(C(F)(F)F)cn2C)cc1 [Example 143, 5-Methoxy-2-(1-methyl-1H-indol-7-yl)-N-(4-(1-methyl-4-(trifluoromethyl)-1H-imidazol-2-yl)benzyl)pyrimidin-4-amine]
0.209 | COc1ncnc(C2CC2)c1-c1ncc2c(n1)N(CC1CCC(c3nc(C(F)(F)F)cn3C)CC1)CCO2 (centres unmarked) [Compound 22, 2-(4-Cyclopropyl-6-methoxypyrimidin-5-y1)-8-(((1r,4r)-4-(1-methyl-4-(trifluoromethyl)-1H-imidazol-2-yl)cyclohexyl)methyl)-7,8-dihydro-6H-pyrimido[5,4-b][1,4]oxazine]
1.67 | COc1cnc(-c2cccc3ccn(C)c23)nc1NCc1ccc(-n2nc(C(F)(F)F)cc2C)cc1 [Example 144, 5-Methoxy-2-(1-methyl-1H-indol-7-yl)-N-(4-(5-methyl-3-(trifluoromethyl)-1H-pyrazol-1-yl)benzyl)pyrimidin-4-amine]
1.27 | COc1cnc(-c2ccccc2C(C)C)nc1N(C)Cc1ccc(-c2ccccn2)cc1 [Compound 1, 2-(2-isopropylphenyl)-5-methoxy-N-methyl-N-(4-(pyridin-2-yl)benzyl)pyrimidin-4-amine]
1.61 | COc1ncnc(C2CC2)c1-c1nc(NCc2ccc3c(c2)CCN(C(C)C)C3=O)c2occc2n1 [Example 115, 6-(((2-(4-Cyclopropyl-6-methoxypyrimidin-5-yl)furo[3,2-d]pyrimidin-4-yl)amino)methyl)-2-isopropyl-3,4-dihydroisoquinolin-1(2H)-one]
1.06 | COc1cnc(-c2cccc3c2N(C)CC3)nc1NCc1ccc(-n2ncc(C(F)(F)F)c2C)cc1 [Example 146, 5-Methoxy-N-(4-(5-methyl-4-(trifluoromethyl)-1H-pyrazol-1-yl)benzyl)-2-(1-methylindolin-7-yl)pyrimidin-4-amine]
> 5 | COc1ncnc(C2CC2)c1-c1nc(NCc2ccc(-c3ccccn3)cc2)c2[nH]ccc2n1 [Example 37, 2-(4-Cyclopropyl-6-methoxypyrimidin-5-yl)-N-(4-(pyridin-2-yl)benzyl)-5H-pyrrolo[3,2-d]pyrimidin-4-amine]
> 5 | COc1ncnc(C2CC2)c1-c1nc(NCc2ccc3c(c2)CCN(C)C3=O)c2occc2n1 [Example 114, 6-(((2-(4-Cyclopropyl-6-methoxypyrimidin-5-yl)furo[3,2-d]pyrimidin-4-yl)amino)methyl)-2-methyl-3,4-dihydroisoquinolin-1(2H)-one]
2.65 | CC(C)c1ccccc1-c1ncc(N2CCOCC2)c(NCc2ccc(-c3nc(C(F)(F)F)cn3C)cc2)n1 [Example 87, 2-(2-Isopropylphenyl)-N-(4-(1-methyl-4-(trifluoromethyl)-1H-imidazol-2-yl)benzyl)-5-morpholinopyrimidin-4-amine]

SMILES | IC50 [µM]
COc1ncnc(C2CC2)c1-c1nc(NCc2ccc(OC3CC(OC)C3)cc2)c2occc2n1 (centres unmarked) [Example 118, 2-(4-Cyclopropyl-6-methoxypyrimidin-5-yl)-N-(4-(3-methoxycyclobutoxy)benzyl)furo[3,2-d]pyrimidin-4-amine] | 1.49
COC1CC(Oc2ccc(CNc3nc(-c4ccccc4C(C)C)nc4ccoc34)cc2)C1 (centres unmarked) [Example 80, 2-(2-Isopropylphenyl)-N-(4-(3-methoxycyclobutoxy)benzyl)furo[3,2-d]pyrimidin-4-amine] | > 5

Same assay, conditions: MDA-MB-436 cells, cultured for 7 days

SMILES | IC50 [µM]
COc1cnc(-c2c(OC)ncnc2C2CC2)nc1NCC12C3C4C1C1C2C3C41c1nc(C(F)(F)F)cn1C (centres unmarked) [Example 215] | 0.0087
